Experimental findings from ChEMBL document CHEMBL2021782, “Drug-to-genome-to-drug, step 2: reversing selectivity in a series of antiplasmodial compounds” (J Med Chem, 2012) are described below.

Data set [1] addresses High affinity cAMP-specific and IBMX-insensitive 3',5'-cyclic phosphodiesterase 8A (Homo sapiens) (UniProt O60658). The experiment in a line: Inhibition of human recombinant PDE8A1 expressed in Sf9 cells at 10 uM after 30 mins by HTRF assay.
In data set [2] the target is cGMP-inhibited 3',5'-cyclic phosphodiesterase 3A (Homo sapiens) (UniProt Q14432). In words: Inhibition of human recombinant PDE3A expressed in Sf9 cells at 10 uM after 30 mins by HTRF assay.
cGMP-inhibited 3',5'-cyclic phosphodiesterase 3A (Homo sapiens), sequence (Q14432 whole entry): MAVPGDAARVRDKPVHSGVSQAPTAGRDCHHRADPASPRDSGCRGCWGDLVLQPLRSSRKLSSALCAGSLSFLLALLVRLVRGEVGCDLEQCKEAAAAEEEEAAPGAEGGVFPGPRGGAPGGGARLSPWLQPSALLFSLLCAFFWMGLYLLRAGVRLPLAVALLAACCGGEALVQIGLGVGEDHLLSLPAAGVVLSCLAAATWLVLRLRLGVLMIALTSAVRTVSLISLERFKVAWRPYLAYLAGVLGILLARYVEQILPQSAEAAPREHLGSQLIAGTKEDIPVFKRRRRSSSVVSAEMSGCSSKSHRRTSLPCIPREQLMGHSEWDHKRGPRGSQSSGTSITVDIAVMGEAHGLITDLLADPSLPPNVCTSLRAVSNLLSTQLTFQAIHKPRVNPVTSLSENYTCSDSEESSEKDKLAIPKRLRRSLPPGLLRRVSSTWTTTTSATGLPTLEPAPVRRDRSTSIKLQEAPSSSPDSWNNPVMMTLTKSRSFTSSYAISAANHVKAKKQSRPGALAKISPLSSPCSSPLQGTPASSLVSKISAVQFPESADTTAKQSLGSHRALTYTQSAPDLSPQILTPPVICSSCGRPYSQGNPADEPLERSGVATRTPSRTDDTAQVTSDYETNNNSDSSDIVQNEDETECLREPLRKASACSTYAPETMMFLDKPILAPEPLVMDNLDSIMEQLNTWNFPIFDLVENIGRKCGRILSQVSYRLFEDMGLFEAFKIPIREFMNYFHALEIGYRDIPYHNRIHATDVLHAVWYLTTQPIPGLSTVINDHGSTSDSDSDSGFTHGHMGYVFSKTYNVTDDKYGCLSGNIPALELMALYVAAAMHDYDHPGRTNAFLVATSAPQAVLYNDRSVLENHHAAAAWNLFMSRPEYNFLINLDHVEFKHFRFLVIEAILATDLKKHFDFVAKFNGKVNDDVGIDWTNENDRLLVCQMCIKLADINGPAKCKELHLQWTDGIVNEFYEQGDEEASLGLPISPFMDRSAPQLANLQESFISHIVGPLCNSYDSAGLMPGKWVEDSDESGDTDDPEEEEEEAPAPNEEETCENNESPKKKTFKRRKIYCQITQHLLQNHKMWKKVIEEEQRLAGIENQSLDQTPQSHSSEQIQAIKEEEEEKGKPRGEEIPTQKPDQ
Data set [3] deals with Plasmodium falciparum. The experiment in a line: Antiplasmodial activity against chloroquine-sensitive Plasmodium falciparum GHA infected in human erythrocytes after 72 hrs using malstat staining by spectrophotometry. The format is functional, organism-based.
Data set [4] addresses High affinity 3',5'-cyclic-AMP phosphodiesterase 7A (Homo sapiens) (UniProt Q13946). In words: Inhibition of human recombinant PDE7A expressed in Sf9 cells at 10 uM after 30 mins by HTRF assay.
Data set [5] in a line: Selectivity index, ratio of IC50 for chloroquine-sensitive Plasmodium falciparum GHA to IC50 for bovine PDE5.
Data set [6] in a line: Cytotoxicity against human MRC5 SV2 cells after 72 hrs using resazurin by fluorimetry. It is filed as cell-based.
The target of data set [7] is Phosphodiesterase 4 (Homo sapiens) (UniProt P27815+Q08499+Q07343+Q08493). The experiment in a line: Inhibition of human recombinant PDE4A1A expressed in Sf9 cells at 10 uM after 30 mins by HTRF assay.
For data set [8], the target named is cAMP and cAMP-inhibited cGMP 3',5'-cyclic phosphodiesterase 10A (Homo sapiens) (UniProt Q9Y233). In words: Inhibition of human recombinant PDE10A1 expressed in Sf9 cells at 10 uM after 30 mins by HTRF assay.
cAMP and cAMP-inhibited cGMP 3',5'-cyclic phosphodiesterase 10A (Homo sapiens), sequence (Q9Y233 whole entry): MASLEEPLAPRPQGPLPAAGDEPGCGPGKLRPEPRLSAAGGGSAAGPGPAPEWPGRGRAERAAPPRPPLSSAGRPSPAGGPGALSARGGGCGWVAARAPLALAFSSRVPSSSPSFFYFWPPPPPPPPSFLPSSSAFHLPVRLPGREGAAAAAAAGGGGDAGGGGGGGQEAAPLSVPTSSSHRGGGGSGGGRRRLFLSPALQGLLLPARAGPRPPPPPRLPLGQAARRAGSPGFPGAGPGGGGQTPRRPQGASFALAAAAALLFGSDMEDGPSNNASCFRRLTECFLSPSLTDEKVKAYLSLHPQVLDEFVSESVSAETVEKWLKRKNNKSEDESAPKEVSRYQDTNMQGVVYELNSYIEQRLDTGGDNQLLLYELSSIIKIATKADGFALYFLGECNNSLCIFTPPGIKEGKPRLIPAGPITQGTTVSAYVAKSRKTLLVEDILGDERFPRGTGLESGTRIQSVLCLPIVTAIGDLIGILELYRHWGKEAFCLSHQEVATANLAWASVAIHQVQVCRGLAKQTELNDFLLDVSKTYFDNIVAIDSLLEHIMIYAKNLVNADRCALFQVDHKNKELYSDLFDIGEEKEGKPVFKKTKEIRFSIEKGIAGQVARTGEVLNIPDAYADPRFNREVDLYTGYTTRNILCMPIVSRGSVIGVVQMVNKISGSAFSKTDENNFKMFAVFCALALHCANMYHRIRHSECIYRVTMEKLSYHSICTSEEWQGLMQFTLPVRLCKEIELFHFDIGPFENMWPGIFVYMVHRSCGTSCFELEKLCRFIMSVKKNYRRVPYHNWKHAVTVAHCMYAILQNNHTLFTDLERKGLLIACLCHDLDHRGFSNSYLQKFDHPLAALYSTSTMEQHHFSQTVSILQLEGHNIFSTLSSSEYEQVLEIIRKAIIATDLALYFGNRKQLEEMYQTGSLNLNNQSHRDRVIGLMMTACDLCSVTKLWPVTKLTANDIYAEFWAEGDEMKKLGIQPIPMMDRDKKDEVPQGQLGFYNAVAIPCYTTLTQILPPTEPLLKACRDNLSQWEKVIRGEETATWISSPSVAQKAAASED
The target of data set [9] is cGMP-specific 3',5'-cyclic phosphodiesterase (Homo sapiens) (UniProt O76074). As to conditions: 10 uM.
Description: Inhibition of human PDE5 using [3H]5GMP at 10 uM after 60 mins by scintillation counting
For data set [10], the target named is cGMP-specific 3',5'-cyclic phosphodiesterase (Bos taurus, UniProt Q28156). The experiment in a line: Inhibition of bovine PDE5 after 24 hrs by time-resolved fluorescence resonance energy transfer assay.
In data set [11] the target is Dual 3',5'-cyclic-AMP and -GMP phosphodiesterase 11A (Homo sapiens) (UniProt Q9HCR9). In words: Inhibition of human recombinant PDE11A4 expressed in Sf9 cells at 10 uM after 30 mins by HTRF assay.
Dual 3',5'-cyclic-AMP and -GMP phosphodiesterase 11A (Homo sapiens), sequence (Q9HCR9 whole entry, looked up): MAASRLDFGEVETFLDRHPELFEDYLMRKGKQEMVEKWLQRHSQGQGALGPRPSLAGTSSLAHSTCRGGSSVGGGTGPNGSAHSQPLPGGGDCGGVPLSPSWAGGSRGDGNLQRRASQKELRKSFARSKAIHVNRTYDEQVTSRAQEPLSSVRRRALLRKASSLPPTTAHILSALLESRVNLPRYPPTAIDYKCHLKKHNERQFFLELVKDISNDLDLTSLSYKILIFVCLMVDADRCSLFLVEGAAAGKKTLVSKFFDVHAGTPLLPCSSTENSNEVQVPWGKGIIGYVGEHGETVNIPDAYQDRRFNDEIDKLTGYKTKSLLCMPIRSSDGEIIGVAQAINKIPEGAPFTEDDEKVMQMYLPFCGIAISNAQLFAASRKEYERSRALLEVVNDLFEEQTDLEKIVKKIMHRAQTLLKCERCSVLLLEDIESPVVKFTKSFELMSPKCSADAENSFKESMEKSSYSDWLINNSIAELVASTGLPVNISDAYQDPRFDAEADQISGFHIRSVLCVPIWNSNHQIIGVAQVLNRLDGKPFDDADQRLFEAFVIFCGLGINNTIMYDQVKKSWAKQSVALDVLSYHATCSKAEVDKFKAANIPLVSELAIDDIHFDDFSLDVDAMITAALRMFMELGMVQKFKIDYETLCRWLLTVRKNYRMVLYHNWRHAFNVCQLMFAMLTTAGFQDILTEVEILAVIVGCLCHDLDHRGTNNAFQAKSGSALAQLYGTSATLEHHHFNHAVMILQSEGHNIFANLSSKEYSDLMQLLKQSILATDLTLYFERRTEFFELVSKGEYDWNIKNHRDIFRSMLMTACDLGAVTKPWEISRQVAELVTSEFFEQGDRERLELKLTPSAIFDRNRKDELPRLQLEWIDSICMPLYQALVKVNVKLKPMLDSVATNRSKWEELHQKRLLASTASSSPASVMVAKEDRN
In data set [12] the target is Dual specificity calcium/calmodulin-dependent 3',5'-cyclic nucleotide phosphodiesterase 1B (Homo sapiens) (UniProt Q01064). In words: Inhibition of human recombinant PDE1B expressed in Sf9 cells at 10 uM after 30 mins by HTRF assay.
Dual specificity calcium/calmodulin-dependent 3',5'-cyclic nucleotide phosphodiesterase 1B (Homo sapiens), sequence (Q01064 whole entry): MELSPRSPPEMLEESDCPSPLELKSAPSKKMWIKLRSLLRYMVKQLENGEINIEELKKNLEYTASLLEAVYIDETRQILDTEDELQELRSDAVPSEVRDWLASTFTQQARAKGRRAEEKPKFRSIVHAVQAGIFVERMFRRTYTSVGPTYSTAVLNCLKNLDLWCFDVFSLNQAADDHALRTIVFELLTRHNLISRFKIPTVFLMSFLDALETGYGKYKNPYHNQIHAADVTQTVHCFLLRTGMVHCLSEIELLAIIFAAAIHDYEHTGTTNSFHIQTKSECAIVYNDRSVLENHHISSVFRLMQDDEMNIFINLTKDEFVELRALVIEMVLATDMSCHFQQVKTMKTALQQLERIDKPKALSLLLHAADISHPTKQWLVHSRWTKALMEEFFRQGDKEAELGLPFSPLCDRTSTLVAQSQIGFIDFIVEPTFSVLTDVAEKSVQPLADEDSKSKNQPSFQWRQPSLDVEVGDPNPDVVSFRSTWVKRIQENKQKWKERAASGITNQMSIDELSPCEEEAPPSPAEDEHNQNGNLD
Data set [13] in a line: Selectivity ratio of CC50 for human MRC5 SV2 cells to IC50 for chloroquine-sensitive Plasmodium falciparum GHA strain. The format is ADME, cell-based. As to conditions: read-out: Ratio CC50/IC50.
Data set [14] concerns the target cGMP-dependent 3',5'-cyclic phosphodiesterase (Homo sapiens) (UniProt O00408). The experiment in a line: Inhibition of human recombinant PDE2A expressed in Sf9 cells at 10 uM after 30 mins by HTRF assay.
For data set [15], the species on record is Bos taurus. In words: Inhibition of bovine PDE6 using [3H]5GMP at 10 uM after 60 mins by scintillation counting.

High affinity 3',5'-cyclic-AMP phosphodiesterase 7A (Homo sapiens), sequence (Q13946 whole entry): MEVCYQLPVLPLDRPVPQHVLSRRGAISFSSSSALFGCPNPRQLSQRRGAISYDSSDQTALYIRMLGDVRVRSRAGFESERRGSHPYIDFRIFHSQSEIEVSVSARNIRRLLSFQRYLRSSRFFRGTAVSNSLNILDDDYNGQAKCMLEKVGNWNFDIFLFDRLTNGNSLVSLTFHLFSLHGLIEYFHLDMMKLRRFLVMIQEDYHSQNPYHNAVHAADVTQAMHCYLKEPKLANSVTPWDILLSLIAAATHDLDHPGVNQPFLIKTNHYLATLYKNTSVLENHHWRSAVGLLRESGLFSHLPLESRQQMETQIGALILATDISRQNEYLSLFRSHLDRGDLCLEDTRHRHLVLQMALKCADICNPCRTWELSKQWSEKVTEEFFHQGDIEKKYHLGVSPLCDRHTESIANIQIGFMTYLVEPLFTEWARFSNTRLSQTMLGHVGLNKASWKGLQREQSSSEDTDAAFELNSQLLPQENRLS
High affinity cAMP-specific and IBMX-insensitive 3',5'-cyclic phosphodiesterase 8A (Homo sapiens), sequence (O60658 whole entry): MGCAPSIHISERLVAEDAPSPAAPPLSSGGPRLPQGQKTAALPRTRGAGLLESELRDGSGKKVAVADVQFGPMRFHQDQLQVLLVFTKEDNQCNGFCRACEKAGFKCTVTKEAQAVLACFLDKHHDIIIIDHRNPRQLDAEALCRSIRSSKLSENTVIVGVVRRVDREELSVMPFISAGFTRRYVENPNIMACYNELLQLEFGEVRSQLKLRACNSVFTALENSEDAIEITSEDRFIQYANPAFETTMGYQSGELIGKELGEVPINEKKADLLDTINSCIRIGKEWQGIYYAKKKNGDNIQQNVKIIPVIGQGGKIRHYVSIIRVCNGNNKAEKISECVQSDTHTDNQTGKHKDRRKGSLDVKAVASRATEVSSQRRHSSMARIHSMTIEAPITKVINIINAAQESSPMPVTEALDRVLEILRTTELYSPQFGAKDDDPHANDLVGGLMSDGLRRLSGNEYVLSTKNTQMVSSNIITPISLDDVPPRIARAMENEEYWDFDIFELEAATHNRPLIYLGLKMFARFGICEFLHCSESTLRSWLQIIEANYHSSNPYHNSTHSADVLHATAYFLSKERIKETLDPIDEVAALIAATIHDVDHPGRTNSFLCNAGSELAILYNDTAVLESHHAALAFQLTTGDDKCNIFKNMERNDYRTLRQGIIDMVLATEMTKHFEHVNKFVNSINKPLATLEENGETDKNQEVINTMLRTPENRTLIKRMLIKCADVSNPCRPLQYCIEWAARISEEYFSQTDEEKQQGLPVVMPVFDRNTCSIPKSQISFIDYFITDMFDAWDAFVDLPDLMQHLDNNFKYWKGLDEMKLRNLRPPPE

Turning to `COc1ccc([C@@H]2c3[nH]c4ccccc4c3C[C@@H]3C(=O)N([C@@H]4CCN(Cc5ccccc5)C4)CC(=O)N23)cc1OC`, the inhibition in [1] was 3%; in data set [2] it was 1%; in data set [4], 0%; in data set [7] it was 1%; in data set [8], 0%; in data set [9], 48%. Moreover, the inhibition in data set [11] was 30%; in [12] it was 0%; in data set [14], 0%; in data set [15], 18%. Besides, the figures for the IC50 in data set [3] and in data set [10] were 0.42 µM and 5.2 µM, respectively. Further, in data set [5], the Ratio IC50 is 12.4. Besides, the CC50 at 72 h in [6] turned out to be 32 µM. The selectivity ratio in [13] stood at 76.
